Data on 24 compounds can be found in ChEMBL document CHEMBL4382212, “Tetrazolylpropan-2-ones as inhibitors of fatty acid amide hydrolase: Studies on structure-activity relationships and metabolic stability” (Eur J Med Chem, 2018).

Structures are written as SMILES.

A short description of the series: Partition coefficient, log P of the compound at 5 mM by reversed phase HPLC analysis. The format is physicochemical. The settings on record: octanol/water.
For `CCCCCCCCc1ccc(OCC(=O)Cn2nnc(-c3ccc(C(=O)OC)cc3)n2)cc1`, the logP at 5000 µM is 8. As for `CC(Oc1ccc(-c2ccccc2)cc1)C(=O)Cn1nnc(-c2ccc(C(=O)O)cc2)n1` (centres undefined), the figure is 2.6; as for `CCCCCCCCc1ccc(OC(C)C(=O)Cn2nnc(-c3ccc(C(=O)OC)cc3)n2)cc1` (centres undefined), more than 8; as for `CCCCCCCCc1ccc(OC(C)C(=O)Cn2nnc(-c3ccc(Cl)cc3)n2)cc1` (centres undefined), more than 8. The figure for `COC(=O)c1ccc(-c2nnn(CC(=O)C(C)Oc3ccc(Oc4ccc(C(F)(F)F)cc4)cc3)n2)cc1` (centres undefined) is 6.2; for `CC(Oc1ccc(Oc2ccc(Cl)cc2)cc1)C(=O)Cn1nnc(-c2ccc(C(=O)O)cc2)n1` (centres undefined) it is 3.3. As for `CC(Oc1ccc(-c2ccccc2)cc1)C(=O)Cn1nnc(-c2ccc(Cl)cc2)n1` (centres undefined), the figure is 6.1; as for `CCCCCCCCc1ccc(OCC(=O)Cn2nnc(-c3ccccc3)n2)cc1`, 8. For the compound `CCCCCCCCc1ccc(OCC(=O)Cn2nnc(C(=O)O)n2)cc1`, the logP at 5000 µM was 5.3. As for `CCCCCCCCc1ccc(OC(C)C(=O)Cn2nnc(-c3ccccc3)n2)cc1` (centres undefined), the figure is more than 8; as for `CCCCCCCCc1ccc(OC(C)C(=O)Cn2nnc(-c3ccc(C(=O)O)cc3)n2)cc1` (centres undefined), 5.9; as for `CC(Oc1ccc(-c2ccccc2)cc1)C(=O)Cn1nnc(-c2ccccc2)n1` (centres undefined), 5.3. As for `CC(Oc1ccc(Oc2ccc(Cl)cc2)cc1)C(=O)Cn1nnc(-c2ccc(Cl)cc2)n1` (centres undefined), the figure is 6.8; as for `CC(Oc1ccc(Oc2ccc(C(F)(F)F)cc2)cc1)C(=O)Cn1nnc(-c2ccc(C(=O)O)cc2)n1` (centres undefined), 3.5. As for `CC(Oc1ccc(Oc2ccc(F)cc2)cc1)C(=O)Cn1nnc(-c2ccc(Cl)cc2)n1` (centres undefined), the figure is 6.2; as for `CCCCCCCCc1ccc(OCC(=O)Cn2nnc(-c3ccc(Cl)cc3)n2)cc1`, more than 8.

On to `CC(Oc1ccc(Oc2ccc(Cl)cc2)cc1)C(=O)Cn1nnc(-c2ccccc2)n1` (centres undefined), for which the logP at 5000 µM stood at 6. The figure for `CC(Oc1ccc(Oc2ccc(F)cc2)cc1)C(=O)Cn1nnc(-c2ccc(C(=O)O)cc2)n1` (centres undefined) is 2.7; for `CC(Oc1ccc(Oc2ccc(F)cc2)cc1)C(=O)Cn1nnc(-c2ccccc2)n1` (centres undefined) it is 5.3.

`COC(=O)c1ccc(-c2nnn(CC(=O)C(C)Oc3ccc(-c4ccccc4)cc3)n2)cc1` (centres undefined) yielded a log partition coefficient (logP) at 5000 µM of 5.4. The figure for `CC(Oc1ccc(Oc2ccc(C(F)(F)F)cc2)cc1)C(=O)Cn1nnc(-c2ccc(Cl)cc2)n1` (centres undefined) is 7; for `COC(=O)c1ccc(-c2nnn(CC(=O)C(C)Oc3ccc(Oc4ccc(Cl)cc4)cc3)n2)cc1` (centres undefined) it is 6.1.

For the compound `COC(=O)c1ccc(-c2nnn(CC(=O)C(C)Oc3ccc(Oc4ccc(F)cc4)cc3)n2)cc1` (centres undefined), the logP at 5000 µM came out at 5.4. The figure for `CC(Oc1ccc(Oc2ccc(C(F)(F)F)cc2)cc1)C(=O)Cn1nnc(-c2ccccc2)n1` (centres undefined) is 6.2.
